Data: the C3SDB collision cross section collection
Values joined by “and” are separate entries in the source; they are usually repeats but may differ in a detail not shown here. Identical values can stand only once.

Conditions: instrument: DT, single field, calibrated with Agilent tune mix (Agilent)

Structure (SMILES) | collision cross section (N2) ([M+H]+) [Å²] | collision cross section (N2) ([M-H]-) | further results
Cn1cncc1C[C@H](N)C(=O)O [3-Methylhistidine] | 134.1 | 134.37 Å² | –
Cn1c(=O)ccn([C@@H]2O[C@H](CO)[C@@H](O)[C@H]2O)c1=O [3-Methyluridine] | – | 166.84 Å² | collision cross section (N2) ([M+Na]+): 164.2 Å²
Cn1c(=O)[nH]c(=O)c2[nH]cnc21 [3-Methylxanthine] | – | 124.48 Å² | –
Nc1ccc(C(=O)[O-])cc1 [4-Aminobenzoate] | 140.4 | – | –
COc1ccc(/C=C/C(=O)O)cc1 [4-Methoxycinnamic acid] | 140.8 | 146.28 Å² | –
NC(=O)c1ncn([C@@H]2O[C@H](COP(=O)(O)O)[C@@H](O)[C@H]2O)c1N [5'-Phosphoribosyl-5-amino-4-imidazolecarboxamide] | 171.6 | 167.62 Å² | –
CC(O)CCCC(=O)O (stereo not given) [5-Hydroxyhexanoic acid] | – | 125.8 Å² | –
NC(Cc1c[nH]c2ccc(O)cc12)C(=O)O (stereo not given) [5-Hydroxytryptophan] | – | 149.2 Å² | collision cross section (N2) ([M+Na]+): 152.2 Å²
COc1ccc2[nH]cc(CCN)c2c1 [5-Methoxytryptamine] | – | 141.18 Å² | –
O=P(O)(O)OC[C@H]1O[C@H](OP(=O)(O)OP(=O)(O)O)[C@H](O)[C@@H]1O [5-Phospho-alpha-D-ribose 1-diphosphate] | – | – | collision cross section (N2) ([M+Na-2H]-): 161.1 Å²
C[C@]12CCC(=O)C[C@@H]1CC[C@@H]1[C@@H]2CC[C@]2(C)C(=O)CC[C@@H]12 [5alpha-Androstane-3,17-dione] | 180.6 | 174.32 Å² | –
Nc1nc(=O)c2c([nH]1)NCC(CNc1ccc(C(=O)N[C@@H](CCC(=O)O)C(=O)O)cc1)=N2 [7,8-Dihydrofolate] | 193.6 | 196.42 Å² | –
Cn1c[n+]([C@@H]2O[C@H](CO)[C@@H](O)[C@H]2O)c2[nH]c(N)nc(=O)c21 [7-Methylguanosine] | – | – | collision cross section (N2) ([M]+): 166.5 Å²
Cn1cnc2[nH]c(=O)[nH]c(=O)c21 [7-Methylxanthine] | 130.8 | 128.75 Å² | –
O=C(O)CCCCCCCCCCCCCCCO [16-Hydroxypalmitic acid] | – | 168.99 Å² | collision cross section (N2) ([M+Na]+): 178.2 Å²
CC(=O)[C@@]1(O)CC[C@H]2[C@@H]3CCC4=CC(=O)CC[C@]4(C)[C@H]3CC[C@@]21C [17alpha-Hydroxyprogesterone] | 183.4 | 183.75 Å² | –
O=C(O)CC[C@H](O)C(=O)O [(S)-2-Hydroxyglutarate] | – | 118.99 Å² and 119.14 Å² | –
Nc1ncnc2c1ncn2[C@@H]1O[C@H](COP(=O)(O)OP(=O)(O)O[C@H]2O[C@H](CO)[C@@H](O)[C@H](O)[C@H]2O)[C@@H](O)[C@H]1O [ADP-glucose] | 214.5 | – | –
Nc1ncnc2c1ncn2[C@@H]1O[C@H](COP(=O)(O)O)[C@@H](OP(=O)(O)O)[C@H]1O [Adenosine 3',5'-diphosphate] | 182.5 | – | collision cross section (N2) ([M-H2O-H]-): 179.49 Å²
Nc1ncnc2c1ncn2[C@@H]1O[C@H](CO)[C@@H](OP(=O)(O)O)[C@H]1O [Adenosine 3'-monophosphate] | – | 171.18 Å² | –

Structure (SMILES) | collision cross section (N2) ([M+H]+) [Å²] | collision cross section (N2) ([M-H]-) | further results
O=C(O)CC(Nc1ncnc2c1ncn2[C@@H]1O[C@H](COP(=O)(O)O)[C@@H](O)[C@H]1O)C(=O)O (stereo not given in full) [Adenylsuccinic acid] | – | 183.19 Å² | collision cross section (N2) ([M+Na]+): 195.6 Å²
CC1=C(/C=C/C(C)=C/C=C/C(C)=C/C(=O)O)C(C)(C)CCC1 [All-trans-retinoic acid] | – | 203.42 Å² | –
NC(=O)NC(NC(N)=O)C(=O)O [Allantoic acid] | – | – | collision cross section (N2) ([M+Na]+): 143 Å²
NC(CSCC[C@H](N)C(=O)O)C(=O)O (stereo not given in full) [Allocystathionine] | 146.7 | – | –
NC(=O)CC[C@H](NC(=O)Cc1ccccc1)C(=O)O [Alpha-N-Phenylacetyl-L-glutamine] | 158.7 | 162.82 Å² | –
Nc1ccc(C(=O)NCC(=O)O)cc1 [Aminohippuric acid] | – | 147.55 Å² | collision cross section (N2) ([M+Na]+): 153.7 Å²
OC[C@H]1O[C@@H](Oc2ccc(O)cc2)[C@H](O)[C@@H](O)[C@@H]1O [Arbutin] | – | – | collision cross section (N2) ([M+Na-2H]-): 159.52 Å²; collision cross section (N2) ([M+Na]+): 166.6 Å²
NC(=NCCC[C@H](N)C(=O)O)N[C@@H](CC(=O)O)C(=O)O [Argininosuccinic acid] | 163.9 | – | collision cross section (N2) ([M+Na-2H]-): 159.57 Å²
CCCCCCCCCCCCCCCCCC(=O)OC[C@H](O)[C@H]1OC(=O)C(O)=C1O [Ascorbyl stearate] | – | 207.62 Å² | –
O=C(O)CCCCCCCC(=O)O [Azelaic acid] | – | 137.38 Å² | –
N[C@@H](CCCCNC(=O)CCCC[C@@H]1SC[C@@H]2NC(=O)N[C@@H]21)C(=O)O [Biocytin] | 186.8 | – | collision cross section (N2) ([M+Na-2H]-): 189.78 Å²
C[C@@H](O)[C@@H](O)c1cnc2[nH]c(N)nc(=O)c2n1 [Biopterin] | 153.5 | 148.31 Å² | –
CCCCCC(=O)O [Caproic acid] | – | 128.54 Å² | –
CCCCCCCC(=O)O [Caprylic acid] | – | 139.46 Å² | –
C[C@H](CCC(=O)O)[C@H]1CC[C@H]2[C@@H]3[C@H](O)C[C@@H]4C[C@H](O)CC[C@]4(C)[C@H]3CC[C@]12C [Chenodeoxycholate] | – | 201.51 Å² | –
NCCP(=O)(O)O [Ciliatine] | 128.7 | 118.25 Å² | –
O=C(O)CC(O)(CC(=O)O)C(=O)O [Citrate] | – | – | collision cross section (N2) ([M+Na]+): 142.4 Å²
COc1cc(/C=C/CO)ccc1O [Coniferol] | – | 138.18 Å² | collision cross section (N2) ([M+H-H2O]+): 128.6 Å²
Nc1ccn(C2O[C@H](CO)[C@H]3OP(=O)(O)O[C@@H]23)c(=O)n1 (stereo not given in full) [Cytidine 2',3'-cyclic phosphate] | 162.3 | – | collision cross section (N2) ([M+Na-2H]-): 161.98 Å²
